Measurements as given in PMC8571951, “An activity‐based bioprobe differentiates a novel small molecule inhibitor from a LOXL2 antibody and provides renewed promise for anti‐fibrotic therapeutic strategies” (Clinical and Translational Medicine, 2021).

Target: T1, LOXL2 (Homo sapiens, UniProt Q9Y4K0)
T1 sequence (Q9Y4K0 26-774): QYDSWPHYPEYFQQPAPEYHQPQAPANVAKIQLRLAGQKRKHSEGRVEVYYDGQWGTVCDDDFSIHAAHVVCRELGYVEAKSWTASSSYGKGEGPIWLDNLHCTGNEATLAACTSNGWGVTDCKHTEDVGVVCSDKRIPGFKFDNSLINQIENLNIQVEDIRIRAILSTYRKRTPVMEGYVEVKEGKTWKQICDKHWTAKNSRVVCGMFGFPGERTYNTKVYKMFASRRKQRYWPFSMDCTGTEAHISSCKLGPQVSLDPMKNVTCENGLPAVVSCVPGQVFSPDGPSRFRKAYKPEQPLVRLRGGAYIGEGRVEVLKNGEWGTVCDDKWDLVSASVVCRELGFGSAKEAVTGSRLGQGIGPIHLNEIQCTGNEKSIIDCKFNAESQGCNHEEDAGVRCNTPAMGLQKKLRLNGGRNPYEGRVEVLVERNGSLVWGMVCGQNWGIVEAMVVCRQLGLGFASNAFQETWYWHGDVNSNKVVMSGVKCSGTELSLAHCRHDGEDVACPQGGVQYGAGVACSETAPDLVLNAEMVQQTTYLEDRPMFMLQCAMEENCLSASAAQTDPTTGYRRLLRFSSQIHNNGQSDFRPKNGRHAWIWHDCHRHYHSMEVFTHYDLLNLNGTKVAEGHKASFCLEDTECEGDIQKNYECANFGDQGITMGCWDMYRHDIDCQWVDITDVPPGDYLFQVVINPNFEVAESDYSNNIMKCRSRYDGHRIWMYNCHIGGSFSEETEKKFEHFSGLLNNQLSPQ
Assay: Phase 1 study, LOXL2 activity in plasma after single oral dose (PXS-5878/Simoa)
Format: in vivo
Parameters: from tissue; host or cells: human plasma (activity) and human serum (protein concentration) from clinical trial subjects
Conditions: for Inhibition of LOXL2 activity: healthy humans
Description: To confirm the therapeutic potential of the anti‐fibrotic PXS‐5338 (Figure S5) in humans, LOXL2 inhibition after oral administration was examined in a phase 1 study. […] This underscored the fast resynthesis of LOXL2 in humans, similar to that seen in rodents, with ca. 80% of enzyme activity returning within 24 h.
FIGURE 3 Inhibition of human lysyl oxidase‐like 2 (LOXL2) enzymatic activity by PXS‐5338 in clinical trials. (A) LOXL2 protein concentration in human serum is fairly constant over 24 h. Protein concentrations normalised to pre‐dose levels are plotted over time in healthy subjects treated with different doses (placebo, 100, 200 and 400 mg) of PXS‐5338. Mean ± SD with n = 6/time point. Phase 1 study with healthy male volunteers, ANZCTR ACTRN12617001444370. Legend of (A) also applies to (B) and (C). (B) Dose‐dependent inhibition of LOXL2 in plasma following a single oral dose of 100, 200 mg or 400 mg PXS‐5338. PXS‐5878/Simoa® platform used to measure the residual activity. Mean ± SD with n = 6/time point. (C) Pharmacokinetic (PK) profile of PXS‐5338 in healthy human males. […] (D) Correlation between LOXL2 protein concentration versus % inhibition. Activity data normalised to pre‐dose value.
The platform consists of an activity-based probe (ABP) for the detection of enzyme activity in conjunction with the Simoa^TM (single molecule array) bead technology to isolate the protein. This platform has enabled accurate measurement of total protein and enzymatic activity of LOXL2 from small volumes of serum, plasma and tissue.
In the immunoassay, paramagnetic capture beads are coated with a LOXL2 capture antibody (AF2639). 100 µL of pre-diluted (4-fold) sample in buffer (0.5% Casein, 0.25% Tween-20 in PBS) is combined in a cuvette with the capture beads (25 µL for protein content at 1.6 x 10^7 beads/mL; 100 µL for enzyme activity at 4 x 10^6 beads/mL). The biotinylated detector agent [either a second anti-LOXL2 antibody (AB213598) for protein content or the ABP (PXS-5878) for enzyme activity) is then added during the same incubation with intermittent shaking at room temperature (35 minutes for protein content or 54 minutes for enzyme activity).
Target molecules present in the sample are captured by the antibody coated beads and bound with the detector agent simultaneously. After incubation, beads are pelleted by magnetic separation, excess sample/buffer and reagents aspirated off and beads resuspended in wash buffer to remove unbound proteins and excess reagents.
Following protein capture and incubation with the detector, a conjugate of streptavidin-β-galactosidase (SβG; 100 µL at 300 - 350 pM) is mixed with the beads and incubated (5 minutes with intermittent shaking at room temperature). SβG binds to the biotinylated detector agent, resulting in enzyme-labelling of captured LOXL2. Following a final wash, the beads are resuspended in a resorufin-β-D-galactopyranoside (RGP) substrate solution and transferred to a Simoa^TM Disc (containing a microarray to separate beads into individual microwells). After settling into the microarray via gravity, beads are then sealed in microwells with oil. If LOXL2 is captured and labelled on the bead, β-galactosidase hydrolyses the RGP substrate in the microwell into a fluorescent product that provides the signal for measurement. A single-labelled target molecule results in sufficient fluorescent signal that can be detected and counted by the Simoa^TM optical system. The percentage of bead-containing wells in the array that have a positive signal is proportional to the amount of target or activity present in the sample.
To determine protein concentration, data can be interpolated from a calibration curve using rh LOXL2. For enzyme activity, samples are incubated for at least 30 minutes at room temperature with or without the pan-LOX inhibitor (100 μM BAPN). […]

## CC(C)c1c(Cc2ccc(S(C)(=O)=O)nc2)c2ncccc2n1C/C(F)=C/CN [PXS‐5338]
Single oral dose 100 mg, 4 h
  Inhibition of LOXL2 activity: 80%
Single oral dose 100 mg, 24 h
  Inhibition of LOXL2 activity: approximately 20%
Single oral dose 200 mg, 4 h
  Inhibition of LOXL2 activity: complete inhibition
Single oral dose 200 mg, 24 h
  Inhibition of LOXL2 activity: 50%
Single oral dose 400 mg, 4 h
  Inhibition of LOXL2 activity: complete inhibition
Single oral dose 400 mg, 24 h
  Inhibition of LOXL2 activity: 70%
Phase 1 samples, n = 210, read-out: Calculated IC50 from correlation of concentration versus % inhibition
  IC50: 24 nM
